From patent publication US20130143969A1 (THE OHIO STATE UNIVERSITY, priority 2010, published 2013)

Tests used:
[1] = in vivo; conditions: for AUC as % curcumin (relative percentage): oral 1.8 g/kg curcumin gel; for AUC: oral 1.8 g/kg curcumin gel in 66.7% PEG 600 + 33.3% Cremophor EL; for concentration at 10 min / concentration at 20 min / concentration at 30 min / concentration at 45 min / concentration at 60 min / concentration at 90 min / concentration at 120 min / concentration at 240 min / concentration at 480 min: CD2F1, mouse, in vivo
Description: Extracts of bio-matrices were subjected to HPLC mass spectrometric analysis.

[2] = system: MV4-11 cells; assay: Cell cycle distribution by flow cytometry; type: cell-based; conditions: 2.5 μM decitabine
Description: (§1) Cell Cycle and Apoptosis Analysis: MV4-11, ML-1, HL-60 and K562 leukemia cell lines were cultured in RPMI medium (VWR International, Inc., West Chester, Pa.) supplemented with 10% fetal bovine serum (Invitrogen, Carlsbad, Calif.) and 1% (v/v) penicillin/streptomycin (Invitrogen Life Technologies; Carlsbad, Calif.) antibiotic solution at 37° C. in an incubator under 5% CO2 atmosphere. For the ex-vivo studies, mononuclear cells obtained from bone marrow (BM) of patient with AML were prepared by Ficoll-Hypaque (Nygaard) gradient centrifugation and cultured with serum-free expansion medium (SFEM) (StemCell technologies, Vancouver, BC) supplemented with GM-CSF (50 ng/ml), IL-3 (20 ng/ml), IL-6 (20 ng/ml) and SCF ([…]). […] The cell cycle and apoptosis of MV4-11 cells was analyzed on a BD FACS Calibur (Beckman Coulter, Fullerton, Calif.) according to the standard protocol provided by the manufacturer.

[3] = system: p15^INK4B promoter region; assay: DNA methylation analysis of the p15INK4B promoter region (LC-MS/MS); type: cell-based; conditions: MV4-11 cells, decitabine 2.5 μM, 72 hours
Description: Genomic DNA isolated from MV4-11 cells was treated with bisulfite using the Epi methylation Kit (Qiagen, Minneapolis, Minn.) according to the instruction from the manufacturer and followed by PCR amplification as follows. The sequences of p15^INK4B primers were: forward 5′-GGGAGGGTAATGAAGTTGAGTTTA-3′ (SEQ ID NO. 1), and reverse 5′-ACCCTAAAACCCCAACTACCTAAAT-3′ (SEQ ID NO. 2). PCR amplifications were performed as follows: 95° C. for 5.5 min, 55° C. for 30s for 5 cycles, and 52° C. for 30 s for 38 cycles, 72° C. for 30s for 38 cycles, with a final step at 72° C. for 1 min. PCRs were carried out in a 100 μl volume containing 10 μl of buffer (10×), 2 μL of each primer (10 μM), 2 μL of (10 mM) dNTPs, 2 U of Platinum Taq DNA polymerase (Invitrogen, Carlsbad, Calif.), 70.6 μL ddH2O and 10 μL of bisulfite treated DNA in a GeneAmp 9700 thermal cycler (Perkin-Elmer, Norwalk, Conn.). PCR products were purified using QIAquick columns and eluted in water. A 500 ng aliquot of the PCR product was incubated with 25 UM. […] Fully methylated PCR products were purified using the QIAquick PCR Purification kit (Qiagen, Minneapolis, Minn.), according to the manufacturer's instructions and 200 ng of the purified DNA was hydrolyzed and the concentrations of 5mdC and 2dC in the hydrolysate were measured by LC-MS/MS using the conditions as described previously.

[4] = system: p15^INK4B; assay: Quantitative RT-PCR of p15INK4B mRNA in leukemia cells; type: cell-based; conditions: MV4-11 cells, decitabine 2.5 μM, 72 hours
Description: as §1
Quantitative RT-PCR was used to quantify the mRNA levels of DNMT1, DNMT3a, DNMT3b, p15INK4B and p21. Total RNA was extracted with Trizol reagent (Invitrogen, Carlsbad, Calif.) and reverse transcribed by reverse transcriptase (Invitrogen). Quantitative real-time PCR reactions were performed in triplicate using Taqman gene expression assay (Applied Biosystems) with an ABI prism 7700 detector (Applied Biosystems). The target gene values were normalized to the values of internal control GAPDH or 18 S, and expressed as relative percent change (100×2^(˜ΔΔCt)) over non-treated samples.

[5] = mouse, oral 1.8 g/kg curcumin in 66.7% PEG 600 + 33.3% Cremophor EL, 1440 min

Row | Compound | AUC as % curcumin (relative percentage) ([1]; mouse) [%] | AUC ([1]; mouse) [µM·min] | plasma level [1, 5] [ng/mL] | plasma level ([1]; same dosing, 10 min) [ng/mL] | plasma level ([1]; same dosing, 20 min) [ng/mL] | plasma level ([1]; same dosing, 30 min) [ng/mL] | plasma level ([1]; same dosing, 45 min) [ng/mL] | plasma level ([1]; same dosing, 60 min) [ng/mL] | plasma level ([1]; same dosing, 90 min) [ng/mL] | plasma level ([1]; same dosing, 120 min) [ng/mL] | plasma level ([1]; same dosing, 240 min) [ng/mL] | plasma level ([1]; same dosing, 480 min) [ng/mL] | concentration at 10 min [1] [ng/mL] | concentration at 20 min [1] [ng/mL] | concentration at 30 min [1] [ng/mL] | concentration at 45 min [1] [ng/mL] | concentration at 60 min [1] [ng/mL] | concentration at 90 min [1] [ng/mL] | concentration at 120 min [1] [ng/mL] | concentration at 240 min [1] [ng/mL] | also measured
1 | COc1cc(CCC(=O)CC(=O)CCc2ccc(O)c(OC)c2)ccc1O [THC, tetrahydrocurcumin] | 7.9 | 38.29 | 2.239 | 112.6977 | 238.2446 | 219.0996 | 62.5 | 39.23 | 6.038 | 8.631 | 8.173 | 4.672 |  |  |  |  |  |  |  |  | 
2 | Nc1ncn([C@H]2C[C@H](O)[C@@H](CO)O2)c(=O)n1 [decitabine, Decitabine] |  |  |  |  |  |  |  |  |  |  |  |  |  |  |  |  |  |  |  |  | cell population in G0/G1 phase [2]: 49.4%; cell population in G2/M phase [2]: 11.7%; cell population in S phase [2]: 26.2%; cell population in SubG1 phase [2]: 13.2%; decrease of p15INK4B promoter methylation level [3]: ~25%; increase of p15INK4B expression level [4]: ~4 fold
3 | curcumin O-sulfate | 3.3 | 16.2 | 0 | 29.44 | 54.83 | 43.06 | 27.51 | 18.75 | 8.637 | 7.752 | 9.949 | 4.05 |  |  |  |  |  |  |  |  | 
4 | O=C(/C=C/c1ccc(O)cc1)CC(=O)/C=C/c1ccc(O)cc1 [BDMO, bisdesmethoxycurcumin] |  |  |  |  |  |  |  |  |  |  |  |  | 65.7 | 115 | 51.4 | 66.9 | 37.3 | 11.1 | 15.4 | 34.5 | concentration at 480 min [1]: 10.9 ng/mL
5 | COc1cc(/C=C/C(=O)CC(=O)/C=C/c2ccc(O[C@@H]3O[C@H](C(=O)O)[C@@H](O)[C@H](O)[C@H]3O)c(OC)c2)ccc1O [GLU, curcumin O-monoglucuronide] | 382.0 | 1863.2 | 24.2129 | 3083.366 | 4428.71 | 5469.386 | 2539.161 | 2057.704 | 1336.072 | 1070.25 |  | 716.5084 |  |  |  |  |  |  |  |  | 
6 | COc1cc(/C=C/C(O)=C/C(=O)/C=C/c2ccc(O)cc2)ccc1O [DMO, desmethoxycurcumin] |  |  |  |  |  |  |  |  |  |  |  |  | 148 | 224 | 108 | 118 | 76.5 | 29.1 | 39.5 | 40.4 | concentration at 480 min [1]: 15.4 ng/mL
